The source of these data is patent publication US7879893B2, “Ligands for the HisB10 Zn2 + sites of the R-state insulin hexamer” (Novo Nordisk A/S, priority 2001, dated 2011).

Residues, ends and D or L forms follow the SMILES beside them. *: point of attachment. X1 = O=C1NC(=O)/C(=C/c2cccc(OCC(=O)*)c2)S1; 4Abz = Nc1ccc(C(=O)O)cc1

For series [1] the following is noted: background statement, cited from earlier work.
Series [2] in a line: Disappearance rate from the subcutaneous depot following subcutaneous injection in pigs (T50% of A14 Tyr(125I) insulin). It is filed as in vivo, pig. Particulars: Asp^B28 human insulin, s.c. From the text: The slow release (prolonged action) properties of certain formulations of the present invention was characterized by the disappearance rate from the subcutaneous depot following subcutaneous injections in pigs. T50% is the time when 50% of the A14 Tyr(^125I) insulin has disappeared from the site of injection as measured with an external γ-counter (Ribel et al., The Pig as a Model for Subcutaneous Absorption in Man. In: M. Serrano-Rtios and P. J. Lefebre (Eds): Diabetes (1985) Proceedings of the 12th congress of the International Diabetes Federation, Madrid, Spain, 1985 (Excerpta Medica, Amsterdam (1986), 891-896). The composition of a series of protracted formulations is given in the table below together with the T50% values. The disappearance curves are illustrated in FIG. 3a-d. For comparison, the T50% for the corresponding insulin preparations formulated without the ligands would be about 2 hours.
The induction of slow release by addition of exogenous ligands of the invention affords further advantages in terms of versatility regarding the choice of insulin species and release patterns. Consequently, human or mutant insulins such as Asp^B28, Lys^B28Pro^B29, or Gly^A21Lys^B3Glu^B29 may be formulated as slow- or dual-release preparations by adding variable amounts of His^B10Zn^2+-site ligand. […]

The molecule `CN(C)c1ccc(/C=C/C=C2\SC(=O)NC2=O)cc1` had a melting point of 259 to 263 °C.

Molecule `COc1cc(O)cc(OC)c1/C=C1\SC(=O)NC1=O` returned a melting point of 331 to 333 °C.

Molecule `COc1cccc(OC)c1/C=C1\SC(=O)NC1=O` returned a melting point of 241 to 242 °C.

In turn, `c1cc(COc2ccc3ccccc3c2)cc(-c2nnn[nH]2)c1` showed a melting point of 200 to 202 °C.

`COc1cc(/C=C2\SC(=O)NC2=O)cc(I)c1O` came in with a melting point of 256 °C.

The molecule `O=C1NC(=O)/C(=C/c2cc3ccccc3o2)S1` came in with a melting point of 265 to 266 °C.

Turning to `CC(/C=C1\SC(=O)NC1=O)=C\c1ccccc1`, the melting point lay in the range of 203 to 210 °C.

On to “soluble human insulin hexamer: "inherent limitation of the absorption half-life to about 4 hours for a soluble human insulin hexamer"”, for which the absorption half-life result in series [1] (inherent limitation) is “about 4 hours”.

`O=C1NC(=O)C(=Cc2c[nH]c3ccc([N+](=O)[O-])cc23)S1` came in with a melting point of 330 to 333 °C.

`O=C1NC(=O)/C(=C/c2cc3ccccc3[nH]c2=O)S1` had a melting point of 338 to 347 °C.

For `O=C1NC(=O)/C(=C/c2ccc3cc(O)ccc3c2)S1`, the melting point lay within 310 to 314 °C.

As to “Co^3+-hexamer: "absorption rates vary between about 1 hour (for rapid-acting insulin analogues ...) and about 4 hours (Co^3+-hexamer)"”, the “absorption rate (time) after subcutaneous injection” value in series [1] (soluble preparations) is reported as “about 4 hours”.

In the case of `O=C1NC(=O)/C(=C/C(Cl)=C/c2ccccc2)S1`, the melting point is 251 to 254 °C.

For the molecule `Cc1cccc(C)c1/C=C1\SC(=O)NC1=O`, the melting point lay in the range of 104 to 105 °C.

Consider `N=C(N)NCCC[C@H](NC(=O)[C@H](CCCNC(=N)N)NC(=O)[C@H](CCCNC(=N)N)NC(=O)[C@H](CCCNC(=N)N)NC(=O)[C@H](CCCNC(=N)N)NC(=O)CNC(=O)CNC(=O)c1ccc(NC(=O)COc2cccc(/C=C3\SC(=O)NC3=O)c2)cc1)C(N)=O` [TZD-Abz-G2R5, 4-{2-[3-(2,4-Dioxothiazolidin-5-ylidenemethyl)phenoxy]acetylamino}benzoyl-Gly2-Arg5-NH2] ({X1-4Abz}-GGRRRRR-NH2), for which the “release pattern of the formulation” value in series [2] (ligand added in concentrations lower than that of Zn2+) is given as “distinctly dual-release formulation”. In series [2] (ligand added in slight excess of the Zn2+ concentration), the T50% entry is given as “about 14.8”.

With `O=C1NC(=O)/C(=C/c2c(Cl)cccc2Cl)S1`, the melting point is 152 to 154 °C.
